The target of one experiment is Histamine H3 receptor (Homo sapiens, UniProt Q9Y5N1). Kind of experiment: Displacement of [3H]Nalpha-methylhistamine from human recombinant histamine H3 receptor expressed in CHO cell membranes after 30 mins by liquid scintillation analysis. Background: Displacement assays read how much labelled ligand stays bound in the presence of the test substance.
Another experiment concerns the target Histamine H4 receptor (Homo sapiens, UniProt Q9H3N8). Kind of experiment: Displacement of [3H]histamine from human recombinant histamine H4 receptor expressed in CHO cell membranes after 30 mins by liquid scintillation analysis.

Sequence of Histamine H4 receptor (Q9H3N8 whole entry): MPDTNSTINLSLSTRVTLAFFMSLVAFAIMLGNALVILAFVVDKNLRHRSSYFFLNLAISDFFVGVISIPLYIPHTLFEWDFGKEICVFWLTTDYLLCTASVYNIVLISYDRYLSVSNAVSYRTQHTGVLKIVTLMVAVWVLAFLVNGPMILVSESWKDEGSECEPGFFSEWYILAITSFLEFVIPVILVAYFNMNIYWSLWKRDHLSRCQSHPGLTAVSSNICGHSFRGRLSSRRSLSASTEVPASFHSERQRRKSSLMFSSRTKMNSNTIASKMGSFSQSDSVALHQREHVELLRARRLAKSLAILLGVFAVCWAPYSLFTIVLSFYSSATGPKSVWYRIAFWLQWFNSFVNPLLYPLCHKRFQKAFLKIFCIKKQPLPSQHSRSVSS
Sequence of Histamine H3 receptor (Q9Y5N1 whole entry): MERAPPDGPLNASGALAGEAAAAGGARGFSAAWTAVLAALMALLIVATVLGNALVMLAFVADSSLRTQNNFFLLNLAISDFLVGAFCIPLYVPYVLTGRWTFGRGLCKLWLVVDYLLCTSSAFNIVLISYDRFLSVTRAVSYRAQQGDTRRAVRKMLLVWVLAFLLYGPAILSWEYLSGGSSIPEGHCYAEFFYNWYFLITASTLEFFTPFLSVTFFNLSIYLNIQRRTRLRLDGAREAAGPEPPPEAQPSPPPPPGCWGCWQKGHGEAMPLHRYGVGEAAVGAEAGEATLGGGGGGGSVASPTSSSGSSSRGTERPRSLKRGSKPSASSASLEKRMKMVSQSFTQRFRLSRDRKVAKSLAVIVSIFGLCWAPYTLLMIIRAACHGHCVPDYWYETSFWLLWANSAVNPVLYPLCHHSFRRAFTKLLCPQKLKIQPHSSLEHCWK

Broadly, the Ki is a measure of affinity in units of concentration, obtained from inhibition or displacement. `Clc1ccc(CNCC[C@@H]2C[C@H]2c2nc3cc(Cl)ccc3[nH]2)cc1`: the Ki on Histamine H3 receptor and on Histamine H4 receptor was greater than 1000 nM in each case.
In the case of `Clc1ccc(CNC[C@@H]2C[C@H]2c2nc3cc(Cl)ccc3[nH]2)cc1`, the inhibition constant (Ki) at Histamine H3 receptor and at Histamine H4 receptor was greater than 1000 nM in each case.
As to `CN1CCN([C@@H]2C[C@@H]2CNCc2ccc(Cl)cc2)CC1`, the Ki on Histamine H3 receptor and on Histamine H4 receptor was greater than 1000 nM each time.
With `Clc1ccc(CNC[C@@H]2C[C@@H]2c2cc3cc(Cl)ccc3[nH]2)cc1`, the Ki at Histamine H3 receptor and on Histamine H4 receptor was greater than 1000 nM throughout.
Turning to `CN1CCN([C@@H]2C[C@@H]2CCNCc2ccc(Cl)cc2)CC1`, the Ki on Histamine H3 receptor and on Histamine H4 receptor was greater than 1000 nM throughout.
With `Clc1ccc(CNCC[C@H]2C[C@H]2N2CCNCC2)cc1`, the Ki on Histamine H3 receptor and at Histamine H4 receptor was greater than 1000 nM in each case.
Take `c1ccc2[nH]c(C[C@@H]3C[C@H]3c3c[nH]cn3)nc2c1`: the Ki on Histamine H3 receptor was found to be 186 nM; at Histamine H4 receptor it was 295 nM.
The corresponding values for `Clc1ccc(CNC[C@H]2C[C@H]2N2CCNCC2)cc1` are greater than 1000 nM and greater than 1000 nM.
The like results for `Clc1ccc(CNCC[C@@H]2C[C@@H]2c2cc3cc(Cl)ccc3[nH]2)cc1` were, in that order, greater than 1000 nM and greater than 1000 nM.
The corresponding values for `c1ccc2[nH]c(CNCC[C@@H]3C[C@H]3c3c[nH]cn3)nc2c1` are 52 nM and 166 nM.

The values are drawn from ChEMBL document CHEMBL4325874, “Design and synthesis of histamine H3/H4 receptor ligands with a cyclopropane scaffold” (Bioorg Med Chem Lett, 2018).
